Data reported in patent publication US8604243B2, “Fluorescent ion indicators for cadmium and lanthanide ion detection” (Life Technologies Corporation, priority 2005, dated 2013).

What was measured:
Type in all cases: binding
[1] = Fluorescence titration of indicator with zinc ions; conditions: for Kd: Table 3 binding constant, read-out: Kd Zn^2+; for F = F(bind)/F0, Zn^2+: fluorescent response to binding, in brackets
[2] = Fluorescence titration of indicator with lead ions; conditions: for Kd: Table 3 binding constant, read-out: Kd Pb^2+; for F = F(bind)/F0, Pb^2+: fluorescent response to binding, in brackets
Method: (§1) A dye stock (5.0×10^−4 M) solution of Compound 109 was prepared in DMSO. Lanthanide, Lead, cadmium and mercury ion solutions from 0-40 nM were prepared in disposable cuvettes by diluting a 100 mM metal ion stock solutions to a final volume of 2 mL with 100 mM MOPS (pH7). For the lanthanide titration, dye stock was diluted to give a final concentration of 50 nM. For the cadmium titration, dye stock was added to give a final concentration of 2.5×10^−7 M. For the mercury titrations, dye stock was added to give a final concentration of 2.5×10^−7 M. Samples were excited at 492 nm and fluorescence was recorded at 517 nm.

[3] = Fluorescence titration of indicator with calcium ions; conditions: for Kd: Table 3 binding constant, read-out: Kd Ca^2+; for F = F(bind)/F0, Ca^2+: fluorescent response to binding, in brackets
[4] = Fluorescence titration of indicator with cadmium ions in cuvettes; conditions: for F = F(bind)/F0, Cd^2+: fluorescent response to binding, in brackets
Method: as §1

[5] = Fluorescence titration of indicator with mercury ions in cuvettes
Method: as §1

[6] = Fluorescence titration of indicator with lanthanide ions in cuvettes; conditions: for F = F(bind)/F0, La^3+: fluorescent response to binding, in brackets
Method: as §1

[7] = Fluorescence titration of indicator with manganese ions; conditions: for Kd: Table 3 binding constant, read-out: Kd Mn^2+; for F = F(bind)/F0, Mn^2+: fluorescent response to binding, in brackets
[8] = Table 3 binding constant, read-out: Kd Cd^2+
[9] = Table 3 binding constant, read-out: Kd La^3+

Row | Structure (SMILES) | Kd [1] | F = F(bind)/F0, Zn^2+ [1] | Kd [2] | F = F(bind)/F0, Pb^2+ [2] | Kd [3] | F = F(bind)/F0, Ca^2+ [3] | Kd ([4]; 100 mM MOPS pH7, dye 2.5×10^−7 M, excited 492 nm, recorded 517 nm, read-out: Kd cadmium (Cd(II))) | Kd [4, 8] | F = F(bind)/F0, Cd^2+ [4] | Kd ([5]; 100 mM MOPS pH7, dye 2.5×10^−7 M, excited 492 nm, recorded 517 nm, read-out: Kd mercury (Hg2+)) | Kd ([5]; Table 3 binding constant, read-out: Kd Hg^2+) | F = F(bind)/F0, Hg^2+ ([5]; fluorescent response to binding, in brackets) | Kd ([6]; 100 mM MOPS pH7, dye 50 nM, excited 492 nm, recorded 517 nm, read-out: Kd lanthanide (La(III))) | Kd [6, 9] | F = F(bind)/F0, La^3+ [6] | Kd [7] | F = F(bind)/F0, Mn^2+ [7]
1 | O=C([O-])CN(CC(=O)[O-])c1ccccc1OCCOCCOc1cc(-c2c3cc(F)c(=O)cc-3oc3cc([O-])c(F)cc23)ccc1N(CC(=O)[O-])CC(=O)[O-].[K+].[K+].[K+].[K+].[K+] [Compound 109] | 27100 nM | 8.8 | 38900 nM | 20 | 21400 nM | 68 | 61 nM | 61 nM | 11 | 2160 nM | 2160 nM | 20 | 10.3 nM | 10 nM | 47 | – | –
2 | CN(C)c1ccc2c(-c3ccc(N(CC(=O)[O-])CC(=O)O)c(OCCOCCOc4ccccc4N(CC(=O)O)CC(=O)O)c3)c3ccc(=[N+](C)C)cc-3oc2c1 [Compound 112] | 35800 nM | 17 | 5440 nM | 29 | 44900 nM | 161 | – | 395 nM | 39 | – | – | – | – | 359 nM | 36 | 80200 nM | 1.82
3 | O=C([O-])CN(CC(=O)O)c1ccc(C2=c3cc4c5c(c3Oc3c2cc2c6c3CCCN6CCC2)CCC[N+]=5CCC4)cc1OCCOCCOc1ccccc1N(CC(=O)O)CC(=O)O [Compound 115] | 28600 nM | 20 | 189 nM | 33 | 67800 nM | 114 | – | 331 nM | – | – | – | – | – | 352 nM | 32 | 136000 nM | 2.5
